Laboratory results taken from patent US20240261474A1, “BIODEGRADABLE TISSUE SCAFFOLD WITH SECONDARY MATRIX TO HOST WEAKLY ADHERENT CELLS” (THE U.S.A., as represented by the Secretary, Department of …, priority 2021, published 2024).
Entries after “also recorded” stand apart in the source; their conditions may differ.

Key:
Type in all cases: cell-based, human
iPSC-RPE [1] = test: Scanning electron microscopy of apical processes; conditions: SEM; for apical processes average transversal length / apical processes average transversal width: transversal section; for type of apical processes: DMSO control shows both petal and finger-like
Experimental: FIG. 11. Defining petal (undulated) and finger-like apical processes. The transversal section of apical processes was measured to precisely define their shape. Petal-like apical processes, obtained by treating RPE cells with AGN 193109, have an average transversal length of 1.68 μm (length min 0.5, max 4 μm) and width of 0.20 μm (width min 0.1, max 1 μm). The petal-like apical processes are also wavy along their length. The width of the undulation ranges from 0.2 to 2 μm. Finger-like apical processes, obtained by treating RPE cells with endo-IWR-1, are cylindrical and have the same average transversal length and width of 0.23 μm (min 0.1, max 1 microns). An example of how measurements of the apical processes was done is shown for each type of apical processed.
Different techniques were used to study RPE morphologic features.
Finally, transmission electron microscopy (TEM) was used to detect fine morphological alterations, whereas scanning electron microscopy (SEM) was essential to study modifications in apical processes structures. […] In DMSO-treated iPSC-RPE we found both types of apical processes, petal and finger-like.

iPSC-RPE [2] = test: Single-cell RNA sequencing; conditions: AGN 193109-, endo-IWR-1- and DMSO-treated cells
Experimental: Single-cell RNA sequencing was performed to confirm that the compounds changed cell transcriptome.

acid phosphatase = test: Acid phosphatase activity in lysates of treated RPE cells (p-nitrophenyl phosphate); conditions: compared with DMSO- or endo-IWR-1-treated cells
Experimental: Acid phosphatase has higher expression in the macula (Boulton et al., Br. J. Opthalm. 78:125-9, doi: 10.1136/bjo.78.2.125, 1994). This enzyme has an important role in photoreceptor outer segment digestion. The acid phosphatase activity was determined in cells treated with DMSO, AGN 193109 or endo-IWR-1. RPE cells were lysed in distilled water to extract the enzyme. The lysates were then incubated with p-nitrophenyl phosphate, a phosphatase substrate that turn yellow when dephosphorylated by acid phosphatase. The color of the solution was measured with a spectrophotometer to estimate the enzyme activity.

iPSC-RPE cells = test: Phagocytosis test with labelled bovine outer segments, flow cytometry; conditions: 4 hours incubation with outer segments; One-way ANOVA showed no difference
Experimental: iPSC-RPE cells were provided purified bovine outer segment (mostly rod photoreceptors) to phagocytose. The outer segments were labelled with a dye that fluoresce when the outer segments are phagocytosed. RPE cells were incubated for 4 hours with outer segments and then analyzed with flow cytometry to measure outer segment ingestion or put back in the incubator for 20 hours before performing flow cytometry to measure outer segment digestion.

## Cc1ccc(C2=CCC(C)(C)c3ccc(C#Cc4ccc(C(=O)O)cc4)cc32)cc1 [AGN 193109, 4-[2-[5,6-Dihydro-5,5-dimethyl-8-(4-methylphenyl)-2-naphthalenyl]ethynyl]-benzoic acid]
iPSC-RPE [1]
  apical processes average transversal length: 1.68 μm
  apical processes average transversal width: 0.20 μm
  type of apical processes: enriched RPE cells with petal-like apical processes (with undulation); also recorded: enrich RPE cells with petal-like and finger-like apical processes, respectively
iPSC-RPE [2]
  single cell transcriptome clustering: cluster separately from each other
Acid phosphatase
  acid phosphatase activity: higher acid phosphatase activity than DMSO- or endo-IWR-1-treated cells; also recorded: higher acid phosphatase activity

## O=C(Nc1cccc2cccnc12)c1ccc(N2C(=O)C3C4C=CC(C4)C3C2=O)cc1 (stereo not drawn) [ENDO-1-IWR, 4-(1,3,3a,4,7,7a-Hexahydro-1,3-dioxo-4,7-methano-2H-isoindol-2-yl)-N-8-quinolinyl-Benzamide]
iPSC-RPE cells
  outer segment ingestion: ingest (peripheral cells) more outer segments
iPSC-RPE [1]
  apical processes average transversal length: 0.23 μm
  apical processes average transversal width: 0.23 μm
  type of apical processes: enriched uniquely by finger-like apical processes; also recorded: enrich RPE cells with petal-like and finger-like apical processes, respectively; also recorded: enriches these cells with finger-like apical processes
iPSC-RPE [1]; listed as Endo-IWR-1
  type of apical processes: enriched cells with finger-like apical processes
iPSC-RPE [2]
  single cell transcriptome clustering: cluster separately from each other
